According to patent publication US20160263110A1 (priority 2013, published 2016):
Where “and” joins values, the source holds several entries; their conditions need not be identical. Equal entries are not always repeated. Entries after “also recorded” stand apart in the source; their conditions may differ. Where two headings read alike, the source gives them in different places.

Experiments:
ALS mouse model = conditions: list of drugs tested in ALS, Zoccolella et al. 2009; cited from earlier work
[1] = list of drugs tested in ALS, Zoccolella et al. 2009; cited from earlier work
ALS patients = conditions: list of drugs tested in ALS, Zoccolella et al. 2009; cited from earlier work
[2] = safety data in non-oncology indications; assay type: in vivo
[3] = tested on: human cord blood mast cells; conditions: cited from earlier work
[4] = tested on: B6SJL-Tg SOD1G93A female mice; conditions: 30 mg/kg/day; from 90 to 120 days
Non-Tg SOD1G93A mice = experiment: negative intervention control in Non-Tg SOD1G93A mice; conditions: 100 mg/kg/day
SOD1G93A rats = experiment: ALS model in SOD1G93A rats: disease onset and survival
[5] = tested on: B6SJL-Tg SOD1G93A female mice
[6] = tested on: B6SJL-Tg SOD1G93A female mice; conditions: for Age of onse, Averages / Age of deal, Averages: average of 8 mice; for Age of onse, Averages: control average 101.25; for Age of deal, Averages: control average 135

CC/C(=C(\c1ccccc1)c1ccc(OCCN(C)C)cc1)c1ccccc1 [Tamoxifen]
Mouse model (ALS mouse model): Overall positive | Human Safety [1]: Relatively safe | Benefits (ALS patients): survival benefit

Cc1ccc(NC(=O)c2ccc(CN3CCN(C)CC3)cc2)cc1Nc1nc(-c2cccnc2)cs1 [masitinib, 4-(4-methylpiperazin-1-ylmethyl)-N-[4-methyl-3-(4-pyridin-3ylthiazol-2-ylamino)phenyl]benzamide]
tolerability, difference between doses ([2]; 3 mg/kg/day versus 6 mg/kg/day): no obvious difference | tolerability ([2]; dosage up to 6 mg/kg/day): well-tolerated | FccRI-mediated degranulation of human cord blood mast cells [3]: inhibition | weight loss versus Tg Ctrl [4]: reduced weight loss during the first stage of the disease | results in Non-Tg animals, masitinib versus water (Non-Tg SOD1G93A mice): showed similar results to one another | survival without paralytic symptoms or weight loss (two rats of the group) (SOD1G93A rats; 40 mg/kg oral): 7 months | early paralysis and death (two rats of the group) (SOD1G93A rats; 40 mg/kg oral once a day Monday to Friday): died before week 6 | survival compared to control (vehicle) (SOD1G93A rats; 40 mg/kg oral, 5 times a week, 3 times a week from week 6, male rats from age 120 days, n=6): prolonged the survival; also recorded: survived longer | disease onset compared to vehicle (SOD1G93A rats; 40 mg/kg oral, after week 6): develop the disease later | hind-limb grip strength curve versus Tg Ctrl ([5]; 30 mg/kg/day): significantly improved the grip strength curve | hind-limb grip strength versus Tg Ctrl ([5]; 100 mg/kg/day, from 90 to 120 days): improved the grip strength during the first stage of the disease | median survival compared with positive control group ([6]; 30 mg/kg/day): higher | Age of onse ([6]; age of symptoms onset, individual mice, 100 mg/kg/day oral gavage Monday-Friday from 90 days old, 100 mg/kg/day): 109 (2×) and 111 (5×) and 115 | Age of onse, Averages ([6]; 30 mg/kg/day): 111.375 | Age of deal, Averages ([6]; 30 mg/kg/day): 139.625 | Age of onse, Averages ([6]; 100 mg/kg/day): 111 | Age of deal, Averages ([6]; 100 mg/kg/day): 132.125 | symptoms onset versus positive control ([6]; both doses, 30 or 100 mg/kg/day): significant delay of symptoms onset | survival versus positive control ([6]; righting reflex as surrogate for survival): trend to improve survival

Nc1nc2ccc(OC(F)(F)F)cc2s1 [riluzole, 6-(trifluoromethoxy)benzothiazol-2-amine]
Benefits (ALS patients): Positive transient impact
